Values of other authors in patent US6833085B2, “Agent for restricting elution of phosphorus, method for producing the same, and method of restricting elution of phosphorus in sludge” (priority 2003, dated 2004).
Where two headings read alike, the source gives them in different places.

Conditions: for Amount of diluted phosphorus: aqueous solution added into sludge

In the case of alum, the “Amount of diluted phosphorus” value (concentration 0.21%) is given as 407 µg/L and the “Amount of diluted phosphorus” value (concentration 0.42%) is given as 490 µg/L.

For `O=[N+]([O-])[O-].O=[N+]([O-])[O-].[Ca+2]` [Calcium nitrate, calcium nitrate], the “Amount of diluted phosphorus” value (concentration 0.35%) is listed as 67 µg/L, the “Amount of diluted phosphorus” value (concentration 0.70%) is listed as 13 µg/L and the “Inhibition of elution of phosphorus” value (injecting a 0.7% aqueous solution) is listed as 98%.

In the case of `[Cl][Fe]([Cl])[Cl]` [Ferric chloride, ferric chloride], the “Amount of diluted phosphorus” value (concentration 0.16%) is listed as 234 µg/L and the “Amount of diluted phosphorus” value (concentration 0.32%) is listed as 402 µg/L.
